We go through one substance from US6417216B1 (priority 2000, dated 2002).

This test has as its system Phytophthora infestans. The class given is in vivo. The conditions noted are these: neighbouring plot, mancozeb at 1600 g/ha.

Regarding mancozeb, the “efficacy, compared with the composition of compounds (I) and (II)” value was “about one-half”.
